Reference: patent publication US12655116B2, “Substituted isophthalic acid diamides” (Bayer Aktiengesellschaft, priority 2020, dated 2026)

Legend:
PHBPU = assay: Post-emergence herbicidal action against PHBPU; format: in vivo, Pharbitis purpurea; conditions: Ipomoea purpurea, 504 h; for pest or weed control at 5 g/ha: dosage 5 g/ha; for pest or weed control at 20 g/ha: dosage 20 g/ha
Outline: (§1)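 Weeds in sandy loam soil received a post-emergence spray at the one-leaf stage. Compounds were applied as WP or EC in water, 600 to 800 l/ha, with 0.2% wetting agent. Activity in % was judged visually after roughly 3 weeks against untreated plants.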

ABUTH [1] = assay: Pre-emergence herbicidal action against ABUTH; format: in vivo, Abutilon theophrasti; conditions: Abutilon theophrasti, 504 h; for pest or weed control at 80 g/ha: scored visually after 3 weeks vs untreated controls (100% = plants have died, 0% = like control plants); for pest or weed control at 20 g/ha: dosage 20 g/ha, scored visually after 3 weeks vs untreated controls, 100% = plants have died, 0% = like control plants, read-out: Pre-emergence action against ABUTH (herbicidal activity in percent)
Outline: (§2)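 Visual rating at 3 weeks vs untreated pots; 0–100% scale, 100% = plants died. Treatment: aqueous WP/EC spray onto covering soil, 600–800 l/ha, 0.2% wetter, seeds in sandy loam.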

SETVI [2] = assay: Post-emergence herbicidal action against SETVI; format: in vivo, Setaria viridis; conditions: Setaria viridis, 504 h; for pest or weed control at 20 g/ha: dosage 20 g/ha; for pest or weed control at 5 g/ha: dosage 5 g/ha
Outline: as §1

MATIN [3] = assay: Post-emergence herbicidal action against MATIN; format: in vivo, Matricaria inodora; conditions: Tripleurospermum inodorum, 504 h, dosage 20 g/ha
Outline: as §1

AMARE [4] = assay: Pre-emergence herbicidal action against AMARE; format: in vivo, Amaranthus retroflexus; conditions: Amaranthus retroflexus, 504 h, scored visually after 3 weeks vs untreated controls, 100% = plants have died, 0% = like control plants
Outline: as §2

POLCO = assay: Pre-emergence herbicidal action against POLCO; format: in vivo, Polygonum convolvulus; conditions: Fallopia convolvulus, 504 h, dosage 80 g/ha
Outline: as §2

MATIN [5] = assay: Pre-emergence herbicidal action against MATIN; format: in vivo, Matricaria inodora; conditions: Tripleurospermum inodorum, 504 h; for pest or weed control at 20 g/ha: dosage 20 g/ha; for pest or weed control at 80 g/ha: dosage 80 g/ha
Outline: as §2

ALOMY [6] = assay: Pre-emergence herbicidal action against ALOMY; format: in vivo, Alopecurus myosuroides; conditions: Alopecurus myosuroides, 504 h, pre-emergence; for pest or weed control at 80 g/ha: scored visually after 3 weeks vs untreated controls (100% = plants have died, 0% = like control plants); for pest or weed control at 20 g/ha: scored visually after 3 weeks, 100% = plants have died, 0% = like control plants
Outline: as §2

AVEFA = assay: Pre-emergence herbicidal action against AVEFA; format: in vivo, Avena fatua; conditions: Avena fatua, 504 h, pre-emergence
Outline: as §2

VERPE [7] = assay: Post-emergence herbicidal action against VERPE; format: in vivo, Veronica persica; conditions: Veronica persica, 504 h, 20 g/ha
Outline: as §1

VIOTR [8] = assay: Pre-emergence herbicidal action against VIOTR; format: in vivo, Viola tricolor; conditions: Viola tricolor, 504 h; for pest or weed control at 80 g/ha: dosage 80 g/ha; for pest or weed control at 20 g/ha: dosage 20 g/ha
Outline: as §2

SETVI [9] = assay: Pre-emergence herbicidal action against SETVI; format: in vivo, Setaria viridis; conditions: Setaria viridis, 504 h, dosage 80 g/ha
Outline: as §2

ALOMY [10] = assay: Post-emergence herbicidal action against ALOMY; format: in vivo, Alopecurus myosuroides; conditions: Alopecurus myosuroides, 504 h, visual assessment about 3 weeks after treatment vs untreated controls; for pest or weed control at 5 g/ha: dosage 5 g/ha; for pest or weed control at 20 g/ha: dosage 20 g/ha
Outline: as §1

AMARE [11] = assay: Post-emergence herbicidal action against AMARE; format: in vivo, Amaranthus retroflexus; conditions: Amaranthus retroflexus, 504 h, 20 g/ha, visual assessment about 3 weeks after treatment, 100% = plants have died, 0% = like control plants
Outline: as §1

ECHCG [12] = assay: Pre-emergence herbicidal action against ECHCG; format: in vivo, Echinochloa crus-galli; conditions: Echinochloa crus-galli, 504 h
Outline: as §2

LOLRI = assay: Pre-emergence herbicidal action against LOLRI; format: in vivo, Lolium rigidum; conditions: Lolium rigidum, 504 h, 80 g/ha
Outline: as §2

VIOTR [13] = assay: Post-emergence herbicidal action against VIOTR; format: in vivo, Viola tricolor; conditions: Viola tricolor, 504 h
Outline: as §1

ECHCG [14] = assay: Post-emergence herbicidal action against ECHCG; format: in vivo, Echinochloa crus-galli; conditions: Echinochloa crus-galli, 504 h, dosage 20 g/ha
Outline: as §1

ABUTH [15] = assay: Post-emergence herbicidal action against ABUTH; format: in vivo, Abutilon theophrasti; conditions: Abutilon theophrasti, 504 h, visual assessment about 3 weeks after treatment vs untreated controls; for pest or weed control at 5 g/ha: dosage 5 g/ha; for pest or weed control at 20 g/ha: dosage 20 g/ha
Outline: as §1

VERPE [16] = assay: Pre-emergence herbicidal action against VERPE; format: in vivo, Veronica persica; conditions: Veronica persica, 504 h; for pest or weed control at 80 g/ha: dosage 80 g/ha
Outline: as §2

For `CCCNC(=O)c1c(C(F)F)ccc(C(=O)Nc2nnnn2C)c1C` [Example 1-345], the pest or weed control at 5 g/ha (PHBPU) was 80%, the pest or weed control at 20 g/ha (PHBPU) was 80% and the pest or weed control at 80 g/ha (ABUTH [1]) was 100%. The pest or weed control at 20 g/ha (ABUTH [1]) was 100%, the pest or weed control at 20 g/ha (SETVI [2]) was 90% and the pest or weed control at 20 g/ha (MATIN [3]) was 80%. It also gave a pest or weed control at 20 g/ha (AMARE [4]) of 100%, a pest or weed control at 80 g/ha (AMARE [4]) of 100% and a pest or weed control at 80 g/ha (POLCO) of 90%. The pest or weed control at 20 g/ha (MATIN [5]) was 100%, the pest or weed control at 80 g/ha (MATIN [5]) was 100% and the pest or weed control at 80 g/ha (ALOMY [6]) was 90%. It also gave a pest or weed control at 20 g/ha (ALOMY [6]) of 80%, a pest or weed control at 80 g/ha (AVEFA) of 90% and a pest or weed control at 20 g/ha (AVEFA; 20 g/ha, scored visually after 3 weeks, 100% = plants have died, 0% = like control plants) of 80%. For the same compound, the pest or weed control at 20 g/ha (VERPE [7]) was 90%, the pest or weed control at 80 g/ha (VIOTR [8]) was 100% and the pest or weed control at 80 g/ha (SETVI [9]) was 100%. For the same compound, the pest or weed control at 5 g/ha (ALOMY [10]) was 80%, the pest or weed control at 20 g/ha (ALOMY [10]) was 90% and the pest or weed control at 20 g/ha (AMARE [11]) was 100%. It also gave a pest or weed control at 20 g/ha (ECHCG [12]; 20 g/ha) of 90%, a pest or weed control at 80 g/ha (ECHCG [12]) of 100% and a pest or weed control at 80 g/ha (LOLRI) of 80%. For the same compound, the pest or weed control at 5 g/ha (VIOTR [13]; 5 g/ha) was 90%, the pest or weed control at 20 g/ha (VIOTR [13]) was 100% and the pest or weed control at 20 g/ha (ECHCG [14]) was 90%. It also gave a pest or weed control at 5 g/ha (ABUTH [15]) of 80%, a pest or weed control at 20 g/ha (ABUTH [15]) of 90% and a pest or weed control at 80 g/ha (VERPE [16]) of 80%.

For `CCNC(=O)c1c(Br)ccc(C(=O)Nc2nnnn2CC)c1Br` [Example 2-342], the pest or weed control at 5 g/ha (PHBPU) was 80%, the pest or weed control at 20 g/ha (PHBPU) was 90% and the pest or weed control at 80 g/ha (ABUTH [1]) was 100%. For the same compound, the pest or weed control at 20 g/ha (ABUTH [1]) was 100%, the pest or weed control at 5 g/ha (SETVI [2]) was 90% and the pest or weed control at 20 g/ha (SETVI [2]) was 90%. For the same compound, the pest or weed control at 20 g/ha (AMARE [4]) was 90%, the pest or weed control at 80 g/ha (AMARE [4]) was 100% and the pest or weed control at 80 g/ha (POLCO) was 80%. It also gave a pest or weed control at 20 g/ha (MATIN [5]) of 90%, a pest or weed control at 80 g/ha (MATIN [5]) of 100% and a pest or weed control at 80 g/ha (ALOMY [6]) of 100%. It also gave a pest or weed control at 20 g/ha (ALOMY [6]) of 90%, a pest or weed control at 80 g/ha (AVEFA) of 90% and a pest or weed control at 20 g/ha (VIOTR [8]) of 90%. The pest or weed control at 80 g/ha (VIOTR [8]) was 100%, the pest or weed control at 80 g/ha (SETVI [9]) was 100% and the pest or weed control at 5 g/ha (ALOMY [10]) was 90%. For the same compound, the pest or weed control at 20 g/ha (ALOMY [10]) was 90%, the pest or weed control at 20 g/ha (AMARE [11]) was 100% and the pest or weed control at 80 g/ha (ECHCG [12]) was 80%. For the same compound, the pest or weed control at 80 g/ha (LOLRI) was 80%, the pest or weed control at 20 g/ha (VIOTR [13]) was 80% and the pest or weed control at 5 g/ha (ABUTH [15]) was 80%. The pest or weed control at 20 g/ha (ABUTH [15]) was 90%, the pest or weed control at 20 g/ha (VERPE [16]; dosage 20 g/ha) was 80% and the pest or weed control at 80 g/ha (VERPE [16]) was 80%.

`CCn1nnnc1NC(=O)c1ccc(Br)c(C(=O)NC2CC2)c1Br` [Example 2-343] was tested, and the pest or weed control at 80 g/ha (ABUTH [1]) was 100%, the pest or weed control at 5 g/ha (SETVI [2]) was 90% and the pest or weed control at 20 g/ha (SETVI [2]) was 90%. The pest or weed control at 20 g/ha (AMARE [4]) was 100%, the pest or weed control at 80 g/ha (AMARE [4]) was 100% and the pest or weed control at 80 g/ha (POLCO) was 90%. For the same compound, the pest or weed control at 20 g/ha (MATIN [5]) was 80%, the pest or weed control at 80 g/ha (MATIN [5]) was 100% and the pest or weed control at 80 g/ha (ALOMY [6]) was 90%. The pest or weed control at 20 g/ha (ALOMY [6]) was 80%, the pest or weed control at 80 g/ha (AVEFA) was 100% and the pest or weed control at 20 g/ha (VIOTR [8]) was 90%. It also gave a pest or weed control at 80 g/ha (VIOTR [8]) of 100%, a pest or weed control at 80 g/ha (SETVI [9]) of 100% and a pest or weed control at 5 g/ha (ALOMY [10]) of 80%. For the same compound, the pest or weed control at 20 g/ha (ALOMY [10]) was 100%, the pest or weed control at 20 g/ha (AMARE [11]) was 100% and the pest or weed control at 80 g/ha (ECHCG [12]) was 90%. It also gave a pest or weed control at 80 g/ha (LOLRI) of 90%, a pest or weed control at 20 g/ha (VIOTR [13]) of 90% and a pest or weed control at 20 g/ha (ABUTH [15]) of 80%.
